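Five concentrations, 48 hours, 96-well plates. GI50: concentration for 50% inhibition of growth.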 Calls of active or inactive are those of the source. Cut-off read from the data, not from the text of the source: active = GI50 up to about 1.1 µM and inactive = higher.
Key:
Experiment in all cases: NCI-60 cell line screen, 48 h
HCC 2998 = tested on: HCC 2998
CCRF-CEM = tested on: CCRF-CEM
NCI-H460 = tested on: NCI-H460
UACC-257 = tested on: UACC-257
SF-539 = tested on: SF-539
HCT-15 = tested on: HCT-15
SNB-19 = tested on: SNB-19
SK-MEL-28 = tested on: SK-MEL-28
KM12 = tested on: KM12
A498 = tested on: A498
U-251 = tested on: U-251
SF-268 = tested on: SF-268
MOLT-4 = tested on: MOLT-4
TK-10 = tested on: TK-10
EKVX = tested on: EKVX
Malme-3M = tested on: Malme-3M
A549 = tested on: A549
NCI-H226 = tested on: NCI-H226

| Structure (SMILES) | GI50 (HCC 2998) | GI50 (CCRF-CEM) | GI50 (NCI-H460) | GI50 (UACC-257) | GI50 (SF-539) | GI50 (HCT-15) [µM] | GI50 (SNB-19) | GI50 (SK-MEL-28) | GI50 (KM12) | GI50 (A498) | GI50 (U-251) | GI50 (SF-268) | GI50 (MOLT-4) | GI50 (TK-10) | GI50 (EKVX) | GI50 (Malme-3M) | GI50 (A549) | GI50 (NCI-H226) |
| --- | --- | --- | --- | --- | --- | --- | --- | --- | --- | --- | --- | --- | --- | --- | --- | --- | --- | --- |
| Cc1cc(C)nc(NS(=O)(=O)c2ccc(Nc3c4ccc(Cl)cc4nc4c(C(=O)Nc5ccc(S(=O)(=O)N=C(N)N)cc5)cccc34)cc2)n1 | > 100 µM (inactive) | 20.6 µM (inactive) | > 100 µM (inactive) | > 100 µM (inactive) | > 100 µM (inactive) | > 100 | > 100 µM (inactive) | 77.6 µM (inactive) | > 100 µM (inactive) | > 100 µM (inactive) | 87.5 µM (inactive) | 35.7 µM (inactive) | 29 µM (inactive) | 98.6 µM (inactive) | > 100 µM (inactive) | 78.7 µM (inactive) | – | – |
| [N-]=[N+]=N[C@H]1C[C@@H](CO)O[C@H]1n1cnc2c(N)ncnc21 | > 100 µM (inactive) | – | > 100 µM (inactive) | > 100 µM (inactive) | > 100 µM (inactive) | – | > 100 µM (inactive) | > 100 µM (inactive) | > 100 µM (inactive) | – | > 100 µM (inactive) | > 100 µM (inactive) | – | > 100 µM (inactive) | 57.4 µM (inactive) | > 100 µM (inactive) | > 100 µM (inactive) | > 100 µM (inactive) |
| Cc1cccc(NC(=O)Cc2nc3ccccc3s2)c1C | > 100 µM (inactive) | > 100 µM (inactive) | > 100 µM (inactive) | > 100 µM (inactive) | > 100 µM (inactive) | > 100 | > 100 µM (inactive) | > 100 µM (inactive) | > 100 µM (inactive) | 83.8 µM (inactive) | – | > 100 µM (inactive) | > 100 µM (inactive) | > 100 µM (inactive) | > 100 µM (inactive) | > 100 µM (inactive) | > 100 µM (inactive) | > 100 µM (inactive) |
| COc1cc2c(cc1OC)NC(=O)NC(Cc1ccc3c(c1)OCO3)CC2 (stereo not given) | > 100 µM (inactive) | > 100 µM (inactive) | > 100 µM (inactive) | > 100 µM (inactive) | – | > 100 | > 100 µM (inactive) | > 100 µM (inactive) | > 100 µM (inactive) | – | – | > 100 µM (inactive) | > 100 µM (inactive) | > 100 µM (inactive) | > 100 µM (inactive) | > 100 µM (inactive) | > 100 µM (inactive) | – |
| COc1ccccc1NC(=O)C1=C(C)NC(C)=C(C(=O)Nc2ccccc2OC)C1c1cccc2ccccc12 | 83.8 µM (inactive) | 20.7 µM (inactive) | 20.1 µM (inactive) | > 100 µM (inactive) | > 100 µM (inactive) | 28.4 | 53 µM (inactive) | 62.7 µM (inactive) | 37.8 µM (inactive) | 33.9 µM (inactive) | > 100 µM (inactive) | 29.4 µM (inactive) | 10.6 µM (inactive) | > 100 µM (inactive) | > 100 µM (inactive) | 38.6 µM (inactive) | 21.9 µM (inactive) | 50.7 µM (inactive) |
| N=S(c1ccccc1[N+](=O)[O-])c1ccccc1[N+](=O)[O-] | 3.4 µM (inactive) | 1.04 µM (active) | – | 2.33 µM (inactive) | 3.13 µM (inactive) | 0.912 | 9.33 µM (inactive) | 4.28 µM (inactive) | 3.34 µM (inactive) | 28 µM (inactive) | – | 4.73 µM (inactive) | 1.8 µM (inactive) | 3.84 µM (inactive) | 5.04 µM (inactive) | 2.72 µM (inactive) | 4.45 µM (inactive) | 4.79 µM (inactive) |
| Cc1nc(-c2nc(C)c(C(=O)/C=C/c3ccc([N+](=O)[O-])cc3)s2)sc1C(=O)/C=C/c1ccc([N+](=O)[O-])cc1 | > 100 µM (inactive) | > 10 µM (inactive) | > 100 µM (inactive) | > 100 µM (inactive) | > 100 µM (inactive) | > 100 | > 100 µM (inactive) | > 100 µM (inactive) | > 100 µM (inactive) | > 100 µM (inactive) | > 100 µM (inactive) | > 100 µM (inactive) | > 100 µM (inactive) | > 100 µM (inactive) | > 100 µM (inactive) | > 100 µM (inactive) | > 100 µM (inactive) | > 100 µM (inactive) |
| C#CCNC(=O)ON1C(=O)CCC1=O | – | > 100 µM (inactive) | > 100 µM (inactive) | > 100 µM (inactive) | > 100 µM (inactive) | > 100 | > 100 µM (inactive) | > 100 µM (inactive) | > 100 µM (inactive) | > 100 µM (inactive) | > 100 µM (inactive) | > 100 µM (inactive) | > 100 µM (inactive) | > 100 µM (inactive) | > 100 µM (inactive) | > 100 µM (inactive) | > 100 µM (inactive) | – |
| Cc1cc2c(C)nn(Cc3ccccc3)c2c(C(N)=O)c1C | > 100 µM (inactive) | > 100 µM (inactive) | > 100 µM (inactive) | > 100 µM (inactive) | > 100 µM (inactive) | > 100 | > 100 µM (inactive) | > 100 µM (inactive) | > 100 µM (inactive) | > 100 µM (inactive) | > 100 µM (inactive) | > 100 µM (inactive) | 62.1 µM (inactive) | > 100 µM (inactive) | > 100 µM (inactive) | > 100 µM (inactive) | > 100 µM (inactive) | – |
| CCO/C(CCn1[nH]c(=O)c(Cl)c(Cl)c1=O)=N\NC(=O)C(=O)NN | > 100 µM (inactive) | > 100 µM (inactive) | > 100 µM (inactive) | > 100 µM (inactive) | > 100 µM (inactive) | > 100 | > 100 µM (inactive) | > 100 µM (inactive) | > 100 µM (inactive) | 82.8 µM (inactive) | > 100 µM (inactive) | > 100 µM (inactive) | > 100 µM (inactive) | > 100 µM (inactive) | > 100 µM (inactive) | > 100 µM (inactive) | > 100 µM (inactive) | > 100 µM (inactive) |
| O=C(/C=C/c1ccccc1Cl)c1ccc(Cl)cc1Cl | 19.1 µM (inactive) | 4.02 µM (inactive) | 17.3 µM (inactive) | 15.9 µM (inactive) | 23 µM (inactive) | 11.7 | 15.5 µM (inactive) | 11.6 µM (inactive) | 11.4 µM (inactive) | 18.8 µM (inactive) | 12.9 µM (inactive) | 15 µM (inactive) | 3.91 µM (inactive) | 17.7 µM (inactive) | 18.9 µM (inactive) | 18.9 µM (inactive) | 21.3 µM (inactive) | 15.7 µM (inactive) |
| O=C1c2c(n(Cc3ccccc3)c(=O)n2Cc2ccccc2)C(=O)N1Cc1ccccc1 | 61.4 µM (inactive) | 9.2 µM (inactive) | 72.4 µM (inactive) | 67.6 µM (inactive) | > 100 µM (inactive) | 47.8 | 89.1 µM (inactive) | > 100 µM (inactive) | 55.5 µM (inactive) | 70 µM (inactive) | 50.4 µM (inactive) | 64.1 µM (inactive) | 54.6 µM (inactive) | > 100 µM (inactive) | 66.8 µM (inactive) | > 100 µM (inactive) | 41.9 µM (inactive) | 92.7 µM (inactive) |
